“Also recorded” adds a separate entry of the source.
Assays:
[1] = set-up: method as in earlier work; settings: urine; cited from earlier work
MsCI4 = target: T1, MsCI4 (Magnetospirillum gryphiswaldense, UniProt A4TVL0); assay: FRET-based binding assay with WT MsCI4; settings: for binding in the FRET assay (in words): WT MsCI4
T1 construct: made in house
T1 sequence (A4TVL0 1-124): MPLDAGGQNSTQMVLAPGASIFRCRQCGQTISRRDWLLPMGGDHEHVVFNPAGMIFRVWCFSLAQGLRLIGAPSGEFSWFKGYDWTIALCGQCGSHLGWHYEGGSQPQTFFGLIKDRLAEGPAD

IKZF3 = assay: Compound-mediated IKZF3 degradation in OPM-2 cells (western blot); assay type: cell-based, human; settings: 24 h
[2] = Solubility in water or bicarbonate buffer; assay type: physicochemical
[3] = spontaneous hydrolysis, physiological pH of 7.4; cited from earlier work

In the case of `NC(=O)CCC(C(=O)O)N1C(=O)c2ccccc2C1=O` (stereo not shown) [2-phthalimidoglutaramic acid], the “share among urinary metabolites of thalidomide” value [1] is listed as ~50%.

With `O=C1CC(N2C(=O)c3cccc([N+](=O)[O-])c3C2=O)C(=O)N1` (stereo not shown) [4a, 2-(2,5-Dioxopyrrolidin-3-yl)-4-nitroisoindoline-1,3-dione] the “binding in the FRET assay (in words)” value (MsCI4) was “binding was observed but could not be quantified” and the “effect on IKZF3 levels / IKZF3 recruitment (in words)” value (IKZF3) was “abolish IKZF3 recruitment”.

For `O=C1CC(N2C(=O)c3ccc([N+](=O)[O-])cc3C2=O)C(=O)N1` (stereo not shown) [4b, 2-(2,5-Dioxopyrrolidin-3-yl)-5-nitroisoindoline-1,3-dione], the “effect on IKZF3 levels / IKZF3 recruitment (in words)” value (IKZF3) was “abolish IKZF3 recruitment”.

With `O=C1CCC(N2C(=O)c3cccc([N+](=O)[O-])c3C2=O)C(=O)N1` (stereo not shown) [4c, 2-(2,6-Dioxopiperidin-3-yl)-4-nitroisoindoline-1,3-dione] the “binding in the FRET assay (in words)” value (MsCI4) was “binding was observed but could not be quantified” and the “effect on IKZF3 levels / IKZF3 recruitment (in words)” value (IKZF3) was “abolish IKZF3 recruitment”.

With `O=C1CCC(N2C(=O)c3ccc([N+](=O)[O-])cc3C2=O)C(=O)N1` (stereo not shown) [4d, 2-(2,6-Dioxopiperidin-3-yl)-5-nitroisoindoline-1,3-dione] the “effect on IKZF3 levels / IKZF3 recruitment (in words)” value (IKZF3) was “abolish IKZF3 recruitment”.

With `Nc1cccc2c1C(=O)N(C1CC(=O)NC1=O)C2=O` (stereo not shown) [5a, 4-Amino-2-(2,5-dioxopyrrolidin-3-yl)isoindoline-1,3-dione] the “binding in the FRET assay (in words)” value (MsCI4) was “binding was observed but could not be quantified” and the “effect on IKZF3 levels / IKZF3 recruitment (in words)” value (IKZF3) was “significant effects”.

With `CC(C)=CC(=O)NC1CC(=O)NC1=O` (stereo not shown) [7a, N-(2,5-Dioxopyrrolidin-3-yl)-3-methylbut-2-enamide] the “binding in the FRET assay (in words)” value (MsCI4) was “binding was observed but could not be quantified”.

With `O=C1CC(NC(=O)Cc2ccccc2)C(=O)N1` (stereo not shown) [7b, N-(2,5-Dioxopyrrolidin-3-yl)-2-phenylacetamide] the “binding in the FRET assay (in words)” value (MsCI4) was “binding was observed but could not be quantified” and the “effect on IKZF3 levels / IKZF3 recruitment (in words)” value (IKZF3) was “abolished IKZF3 recruitment”.

For `O=C1CC(NC(=O)OCc2ccccc2)C(=O)N1` (stereo not shown) [7d, Benzyl (2,5-Dioxopyrrolidin-3-yl)carbamate], the “reduction of IKZF3 levels” value (IKZF3; 100 μM) was “about 20%” and the “effect on IKZF3 levels / IKZF3 recruitment (in words)” value (IKZF3) was “significant effects”.

For `O=C1CC(NC(=O)c2cc([N+](=O)[O-])cc([N+](=O)[O-])c2)C(=O)N1` (stereo not shown) [7e, N-(2,5-Dioxopyrrolidin-3-yl)-3,5-dinitrobenzamide], the “binding in the FRET assay (in words)” value (MsCI4) was “binding was observed but could not be quantified; also recorded: affinity was decreased under the detectable levels of the FRET assay”.

With `O=C(/C=C/c1ccccc1)NC1CC(=O)NC1=O` (stereo not shown) [7f, N-(2,5-Dioxopyrrolidin-3-yl)cinnamamide] the “effect on IKZF3 levels / IKZF3 recruitment (in words)” value (IKZF3) was “significant effects”.

For `O=C1CC(NC(=O)c2sc3ccccc3c2Cl)C(=O)N1` (stereo not shown) [7g, 3-Chloro-N-(2,5-dioxopyrrolidin-3-yl)benzo[b]thiophene-2-carboxamide], the “binding in the FRET assay (in words)” value (MsCI4) was “binding was observed but could not be quantified”.

With `NCc1ccc(COC(=O)NC2CC(=O)NC2=O)cc1.O=C(O)C(F)(F)F` (stereo not shown) [11a, (4-((((2,5-Dioxopyrrolidin-3-yl)carbamoyl)oxy)methyl)phenyl)methanaminium 2,2,2-Trifluoroacetate] the “solubility in water (in words)” value [2] was “water-soluble” and the “effect on IKZF3 levels / IKZF3 recruitment (in words)” value (IKZF3) was “abolished IKZF3 recruitment”.

With `NCc1ccc(COC(=O)NC2CCC(=O)NC2=O)cc1.O=C(O)C(F)(F)F` (stereo not shown) [11b, (4-((((2,6-Dioxopiperidin-3-yl)carbamoyl)oxy)methyl)phenyl)methanaminium 2,2,2-Trifluoroacetate] the “solubility in water (in words)” value [2] was “water-soluble” and the Ki (MsCI4) was 10 ± 0.8 µM.

For `O=C(O)CCC(=O)NCc1ccc(COC(=O)NC2CC(=O)NC2=O)cc1` (stereo not shown) [12a, 4-((4-((((2,5-Dioxopyrrolidin-3-yl)carbamoyl)oxy)methyl)benzyl)amino)-4-oxobutanoic Acid], the “effect on IKZF3 levels / IKZF3 recruitment (in words)” value (IKZF3) was “abolished IKZF3 recruitment”.

In the case of `N[C@H]1CC[C@@H](COC(=O)NC2CC(=O)NC2=O)CC1` (stereo partly shown) [16a], the “solubility in water (in words)” value [2] is reported as “water-soluble” and the Ki (MsCI4) is reported as 20 ± 2 µM.

For `N[C@H]1CC[C@@H](COC(=O)NC2CCC(=O)NC2=O)CC1` (stereo partly shown) [16b], the “solubility in water (in words)” value [2] was “water-soluble” and the Ki (MsCI4) was 5 ± 0.5 µM.

In the case of `O=C1CCC(NC(=O)c2ccccc2C(=O)O)C(=O)N1` (stereo not drawn) [CBG, α-(2-carboxybenzamido)glutarimide, reference compound], the “share among urinary metabolites of thalidomide” value [1] is given as ~30%.

In the case of `O=C1CCC(N2C(=O)c3ccccc3C2=O)C(=O)N1` (stereo not shown) [thalidomide], the half-life [3] is given as 5.5 to 7.3 h.
